Test results: patent US9611289B2, “Farnesoid X receptor modulators” (Intercept Pharmaceuticals, Inc., priority 2013, dated 2017)
≈ marks a conversion by molar mass, not a printed value. Where a name gives a salt, the structure may show the parent alone. Read-outs that look alike come from different tables or passages of the source.

Columns and labels:
PXR [1] = target: T1, PXR (Homo sapiens, UniProt O75469); experiment: AlphaScreen nuclear receptor activation; type: biochemical
T1 sequence (O75469 1-434): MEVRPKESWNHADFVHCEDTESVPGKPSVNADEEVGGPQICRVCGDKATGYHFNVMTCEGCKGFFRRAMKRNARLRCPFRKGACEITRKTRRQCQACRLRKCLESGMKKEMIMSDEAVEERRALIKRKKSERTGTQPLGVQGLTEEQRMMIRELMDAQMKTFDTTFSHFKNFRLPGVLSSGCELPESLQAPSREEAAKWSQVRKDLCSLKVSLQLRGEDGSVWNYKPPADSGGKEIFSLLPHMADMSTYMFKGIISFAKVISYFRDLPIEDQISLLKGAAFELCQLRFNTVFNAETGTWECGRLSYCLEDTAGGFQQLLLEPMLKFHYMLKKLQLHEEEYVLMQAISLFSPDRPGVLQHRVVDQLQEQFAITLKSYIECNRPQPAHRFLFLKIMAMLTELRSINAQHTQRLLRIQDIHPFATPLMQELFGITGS

RARα = RARα (Homo sapiens, UniProt P10276); experiment: AlphaScreen nuclear receptor activation; type: biochemical
HepG2 cells [2] = experiment: Cell viability by intracellular ATP in HepG2 cells; type: cell-based, human; conditions: 4 h, different concentrations, FIG. 6
HepG2 cells [3] = conditions: for living cells: LDH measure
CYP1A2 = target: T2, CYP1A2 (Homo sapiens, UniProt P05177); experiment: biochemical
T2 sequence (P05177 1-516): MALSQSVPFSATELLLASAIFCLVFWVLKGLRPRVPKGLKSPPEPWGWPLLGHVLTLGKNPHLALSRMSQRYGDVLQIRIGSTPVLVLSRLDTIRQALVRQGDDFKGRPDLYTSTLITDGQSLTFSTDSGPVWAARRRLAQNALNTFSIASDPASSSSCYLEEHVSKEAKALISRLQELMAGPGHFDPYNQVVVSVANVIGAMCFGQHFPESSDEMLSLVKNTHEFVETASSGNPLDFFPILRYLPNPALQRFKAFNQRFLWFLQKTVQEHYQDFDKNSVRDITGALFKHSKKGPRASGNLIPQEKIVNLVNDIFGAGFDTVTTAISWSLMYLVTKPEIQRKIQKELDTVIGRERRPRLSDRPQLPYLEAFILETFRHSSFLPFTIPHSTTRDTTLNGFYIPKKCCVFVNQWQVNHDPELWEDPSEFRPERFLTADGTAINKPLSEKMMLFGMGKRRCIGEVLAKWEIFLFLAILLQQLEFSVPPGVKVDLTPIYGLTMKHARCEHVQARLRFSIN

CYP3A4 [4] = target: T3, CYP3A4 (Homo sapiens, UniProt P08684); experiment: biochemical
CYP2C9 = CYP2C9 (Homo sapiens, UniProt P11712); experiment: biochemical
CYP2C19 = CYP2C19 (Homo sapiens, UniProt P33261); experiment: biochemical
CYP2D6 = CYP2D6 (Homo sapiens, UniProt P10635); experiment: biochemical
CYP2E1 = CYP2E1 (Homo sapiens, UniProt P05181); experiment: biochemical
hERG potassium channel = hERG potassium channel (Homo sapiens, UniProt Q12809); experiment: PREDICTOR hERG Fluorescence Polarization assay; conditions: CHO-hERG membrane preparations
[5] = 1-octanol-water partition coefficient (LogPA-); conditions: ionized species
CYP3A4 [6] = target: T3, CYP3A4; experiment: CYP450 inhibition, recombinant baculosomes, fluorescent signal; conditions: read-out: CYP3A4 (Green Substrate) IC50
[7] = Critical micellar concentration; type: physicochemical; conditions: […] NaCl water solution
Surface tension at CMC = type: physicochemical; conditions: […] NaCl water solution
PR = PR (Homo sapiens, UniProt P06401); experiment: AlphaScreen nuclear receptor activation; type: biochemical
HepG2 cells [8] = experiment: cells; conditions: Homo sapiens, HepG2, read-out: Membrane integrity EC50 (μM) (LDH measure)
FXR target genes = experiment: Quantitative RT-PCR of FXR target genes in HepG2 cells; type: cell-based, human; conditions: 1 μM, overnight
CAR = CAR (Homo sapiens, UniProt Q14994); conditions: read-out: CAR Activation EC50; *inverse agonist; taken from Rizzo et al. 2010; cited from earlier work
PXR [9] = target: T1, PXR; conditions: taken from Rizzo et al. 2010; cited from earlier work

CC[C@H]1[C@@H](O)[C@@H]2[C@H]([C@@H](O)C[C@]3(C)[C@@H]([C@H](C)CCC(=O)O)CC[C@@H]23)[C@@]2(C)CC[C@@H](O)C[C@@H]12 [Compound 100, 3α,7α,11β-trihydroxy-6α-ethyl-5β-cholan-24-oic acid]
PXR Activation EC50 (μM) (PXR [1]): No activity
RARα Activation EC50 (μM) (RARα): No activity
viable cells (ATP measurement) (HepG2 cells [2]): 100%
living cells (HepG2 cells [3]; HepG2 cells): (100% living cells)
cytotoxic effect on HepG2 cells (HepG2 cells [3]; LDH release): does not induce any cytotoxic effect
IC50 (CYP1A2): > 10 µM
IC50 (CYP3A4 [4]): > 10 µM
IC50 (CYP2C9): > 10 µM
IC50 (CYP2C19): > 10 µM
IC50 (CYP2D6): > 10 µM
IC50 (CYP2E1): > 10 µM
solubility (Water solubility): 143 to 150 µM (≈ 62.4 to 65.5 µg/mL)
block or inhibition of the hERG potassium channel (hERG potassium channel): does not block or inhibit
LogPA−(d) 1-octanol-water partition coefficient [5]: 0.8
IC50 (CYP3A4 [6]): > 10 µM

C[C@H](CCC(=O)O)[C@H]1CC[C@H]2[C@@H]3[C@H](O)C[C@@H]4C[C@H](O)CC[C@]4(C)[C@H]3CC[C@]12C [CDCA, chenodeoxycholic acid]
CMC(b) (mM) Critical Micellar Concentration [7]: 3.2 mM
STCMC(c) (Dyne/cm) Surface Tension at CMC (Surface tension at CMC): 45.5 Dyne/cm
LogPA−(d) 1-octanol-water partition coefficient [5]: 2.2

CC[C@H]1[C@@H](O)C2C3CCC(C(C)CC(C)C(=O)O)[C@@]3(C)[C@@H](O)CC2[C@@]2(C)CC[C@@H](O)C[C@@H]12 (stereo in doubt) [Compound C, 6α-ethyl-23(S)-methyl-3α,7α,12α trihydroxy-5β-cholan-24-oic acid]
CMC(b) (mM) Critical Micellar Concentration [7]: 2 mM
STCMC(c) (Dyne/cm) Surface Tension at CMC (Surface tension at CMC): 50.1 Dyne/cm
LogPA−(d) 1-octanol-water partition coefficient [5]: 1.4

C[C@]12C[C@H](O)[C@H]3[C@@H](CCC4=CC(=O)CC[C@@]43C)[C@@H]1CC[C@@H]2C(=O)CO [Corticosterone]
EC50 (PR): 0.05 µM

CC[C@H]1[C@@H](O)C2C3CC[C@H]([C@H](C)C[C@H](C)C(=O)O)[C@@]3(C)CCC2[C@@]2(C)CC[C@@H](O)C[C@@H]12 (stereo partly drawn) [Compound D, 6α-ethyl-23(R)-methyl chenodeoxycholic acid]
solubility (Water solubility): 15 µM (≈ 6.52 µg/mL)
LogPA−(d) 1-octanol-water partition coefficient [5]: 2.9

CC[C@H]1[C@@H](O)C2C3CC[C@H]([C@H](C)CCC(=O)O)[C@@]3(C)C[C@@H](O)C2[C@@]2(C)CC[C@@H](O)C[C@@H]12 (stereo partly drawn) [Compound 101]
Membrane integrity EC50 (μM) (LDH measure) (HepG2 cells [3]; HepG2 cells): No toxicity
living cells (HepG2 cells [3]; HepG2 cells): (100% living cells)

C[C@H](CCC(=O)O)[C@H]1CC[C@H]2[C@@H]3CC[C@@H]4C[C@H](O)CC[C@]4(C)[C@H]3CC[C@]12C [LCA, lithocholic acid]
EC50 (HepG2 cells [8]): 75 ± 5 µM

C[C@H](CCC(=O)O)[C@H]1CC[C@H]2[C@@H]3[C@@H](O)C[C@@H]4C[C@H](O)CC[C@]4(C)[C@H]3CC[C@]12C [UDCA, ursodeoxycholic acid]
CMC(b) (mM) Critical Micellar Concentration [7]: 6 to 10 mM
STCMC(c) (Dyne/cm) Surface Tension at CMC (Surface tension at CMC): 50.5 Dyne/cm
solubility (Water solubility): 7 to 7.5 µM (≈ 2.75 to 2.94 µg/mL)
LogPA−(d) 1-octanol-water partition coefficient [5]: 2.2

CC[C@H]1[C@@H](O)C2C3C[C@H](O)[C@H]([C@H](C)CCC(=O)O)[C@@]3(C)CCC2[C@@]2(C)CC[C@@H](O)C[C@@H]12 (stereo partly drawn) [Compound E]
CMC(b) (mM) Critical Micellar Concentration [7]: 5.9 mM
STCMC(c) (Dyne/cm) Surface Tension at CMC (Surface tension at CMC): 52.4 Dyne/cm
solubility (Water solubility): 120 µM (≈ 52.4 µg/mL)
LogPA−(d) 1-octanol-water partition coefficient [5]: 1.6

C[C@H](CCC(=O)NCCS(=O)(=O)O)[C@H]1CC[C@H]2[C@@H]3[C@@H](O)C[C@@H]4C[C@H](O)CC[C@]4(C)[C@H]3CC[C@]12C [TUDCA, tauroursodeoxycholic acid]
CMC(b) (mM) Critical Micellar Concentration [7]: 2.2 mM
LogPA−(d) 1-octanol-water partition coefficient [5]: 1.1

CC[C@H]1[C@@H](O)[C@@H]2[C@H](CC[C@]3(C)[C@@H]([C@H](C)CCOS(=O)(=O)O)CC[C@@H]23)[C@@]2(C)CC[C@@H](O)C[C@@H]12 [Compound B, 6α-ethyl-3α,7α,23-trihydroxy-24-nor-5β-cholan-23-sulfate sodium salt]
CYP7α1 gene expression (FXR target genes): down
EC50 (CAR): 44 µM
PXR Activation EC50 (μM) (PXR [9]): No activity
IC50 (CYP1A2): > 10 µM
IC50 (CYP3A4 [4]): > 10 µM
IC50 (CYP2C9): > 10 µM
IC50 (CYP2C19): > 10 µM
IC50 (CYP2D6): > 10 µM
IC50 (CYP2E1): > 10 µM
block or inhibition of the hERG potassium channel (hERG potassium channel): does not block or inhibit
LogPA−(d) 1-octanol-water partition coefficient [5]: 2.0
IC50 (CYP3A4 [6]): > 10 µM

C[C@H](CCC(=O)NCCS(=O)(=O)O)[C@H]1CC[C@H]2[C@@H]3[C@H](O)C[C@@H]4C[C@H](O)CC[C@]4(C)[C@H]3CC[C@]12C [TCDCA, taurochenodeoxycholic acid]
CMC(b) (mM) Critical Micellar Concentration [7]: 3.0 mM
LogPA−(d) 1-octanol-water partition coefficient [5]: 0.9
